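The compound was tested at five concentrations on cells cultured in 96-well plates, with a 48-hour exposure period. TGI: total growth inhibition.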
How the values were obtained:
Assay in all cases: NCI-60 cell line screen, 48 h
[1] = tested on: 786-0 renal
[2] = tested on: A549 NSCLC
[3] = tested on: ACHN renal
[4] = tested on: CAKI-1 renal
[5] = tested on: CCRF-CEM leukemia
[6] = tested on: COLO 205 colon
[7] = tested on: DLD-1 colon
[8] = tested on: DMS 273 small cell lung
[9] = tested on: EKVX NSCLC
[10] = tested on: HCT-116 colon
[11] = tested on: HL-60(TB) leukemia
[12] = tested on: HOP-18 NSCLC
[13] = tested on: HOP-62 NSCLC
[14] = tested on: HT29 colon
[15] = tested on: IGROV1 ovarian
[16] = tested on: K-562 leukemia
[17] = tested on: KM12 colon
[18] = tested on: LOX IMVI melanoma
[19] = tested on: LXFL 529 NSCLC
[20] = tested on: M14 melanoma
[21] = tested on: M19-MEL melanoma
[22] = tested on: MOLT-4 leukemia
[23] = tested on: NCI-H226 lung
[24] = tested on: NCI-H23 lung
[25] = tested on: NCI-H460 lung
[26] = tested on: NCI-H522 lung
[27] = tested on: OVCAR-3 ovarian
[28] = tested on: OVCAR-4 ovarian
[29] = tested on: OVCAR-5 ovarian
[30] = tested on: OVCAR-8 ovarian
[31] = tested on: RPMI-8226 leukemia
[32] = tested on: RXF 393 renal
[33] = tested on: SF-268 CNS
[34] = tested on: SF-295 CNS
[35] = tested on: SK-MEL-28 melanoma
[36] = tested on: SK-OV-3 ovarian
[37] = tested on: SN12C renal
[38] = tested on: SNB-75 CNS
[39] = tested on: SNB-78 CNS
[40] = tested on: SR leukemia
[41] = tested on: SW-620 colon
[42] = tested on: TK-10 renal
[43] = tested on: U251 CNS
[44] = tested on: UACC-62 melanoma
[45] = tested on: UO-31 renal
[46] = tested on: XF 498 CNS

`Cc1cc(C)c2c(c1)CN1CN2Cc2cc(C)cc(C)c21` gave a TGI [1] of 34.7 µM, a TGI [2] of over 100 µM and a TGI [3] of 35.9 µM. The TGI [4] was over 100 µM, the TGI [5] was 68.2 µM and the TGI [6] was 42.6 µM. The TGI [7] was 58.3 µM, the TGI [8] was 37.2 µM and the TGI [9] was 35.1 µM. The TGI [10] was 37.2 µM, the TGI [11] was 48.8 µM and the TGI [12] was 80.3 µM. It also gave a TGI [13] of 53.2 µM, a TGI [14] of 29.9 µM and a TGI [15] of over 100 µM. For the same compound, the TGI [16] was over 100 µM, the TGI [17] was 37.1 µM and the TGI [18] was 30.7 µM. The TGI [19] was over 100 µM, the TGI [20] was 51.8 µM and the TGI [21] was 53.4 µM. It also gave a TGI [22] of 63.1 µM, a TGI [23] of 61.5 µM and a TGI [24] of 55.4 µM. It also gave a TGI [25] of 29.6 µM, a TGI [26] of 53.4 µM and a TGI [27] of 28.3 µM. It also gave a TGI [28] of 50.8 µM, a TGI [29] of over 100 µM and a TGI [30] of 39.5 µM. The TGI [31] was 52.2 µM, the TGI [32] was 22.4 µM and the TGI [33] was over 100 µM. It also gave a TGI [34] of 37.4 µM, a TGI [35] of 44.4 µM and a TGI [36] of 86.5 µM. It also gave a TGI [37] of 32.6 µM, a TGI [38] of 24.8 µM and a TGI [39] of 40.2 µM. The TGI [40] was 39.3 µM, the TGI [41] was over 100 µM and the TGI [42] was 37.7 µM. For the same compound, the TGI [43] was 32.3 µM, the TGI [44] was 35.9 µM and the TGI [45] was 43.5 µM. It also gave a TGI [46] of 33.4 µM.

From PubChem BioAssay (NCI)
